Reference: patent publication US7118895B2, “Process for producing aglycon by using diglycosidase and flavor-improved food containing the aglycon and converting agent to be used in the process” (Amano Enzyme Inc., priority 2000, dated 2006)

Tests used:
[1] = system: Diglycosidase derived from A. fumigatus; assay: Reactivity toward various isoflavone glycosides (HPLC); type: biochemical, Aspergillus fumigatus; parameters: unit not given here; details: 55 °C, pH 4.0
Method in brief: (§1)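 Enzymes at 0.75 AU/mL in pH 4.0 acetate buffer were reacted at 55° C with individual isoflavone glycosides (substrate stock 2 mM in methanol) in 20 mM acetate pH 4.0. Aglycone release followed at 0, 1, 3 and 6 h: ethanol-quenched, ODS HPLC with UV 260 nm, quantified against calibration curves.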

[2] = system: β-Glucosidase derived from A. niger; assay: as above; type: biochemical, Aspergillus niger; parameters: glucoside / aglycon: unit not given here; details: 55 °C, pH 4.0
Method in brief: as §1

Crude diglycosidase = assay: Examination of substrate concentration in the conversion into isoflavone aglycons by diglycosidase using soybean materials; type: biochemical, Penicillium multicolor IAM7153;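 also: percent of the isoflavone family total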
Method in brief: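 Soybean materials (roasted soy flour, soymilk, defatted soybean, concentrated soy protein) at 2–30% (w/v) in 20 mM acetate pH 4.0 were reacted with crude diglycosidase at 55° C with shaking; enzyme solution added was 1.88 AU/mL. Samples taken at 0, 1, 3 and 6 h were ethanol-extracted and analyzed by HPLC.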

aglycon ([1]; Reaction time 0 h): 0
glucoside ([1]; Reaction time 0 h): 100
aglycon ([1]; Reaction time 1 h): 0.5
glucoside ([1]; Reaction time 1 h): 99.5
aglycon ([1]; Reaction time 3 h): 0
glucoside ([1]; Reaction time 3 h): 100
aglycon ([1]; Reaction time 6 h): 0
glucoside ([1]; Reaction time 6 h): 100
reactivity of β-glucosidase derived from Aspergillus niger (in words) [2]: act well
aglycon ([2]; Reaction time 0 h): 0
glucoside ([2]; Reaction time 0 h): 100
aglycon ([2]; Reaction time 1 h): 49.5
glucoside ([2]; Reaction time 1 h): 50.5
aglycon ([2]; Reaction time 3 h): 88.3
glucoside ([2]; Reaction time 3 h): 11.7
aglycon ([2]; Reaction time 6 h): 95.5
glucoside ([2]; Reaction time 6 h): 4.5
Decomposition efficiency: ratio of each glycoside/aglycon within its isoflavone family (Crude diglycosidase; concentrated soybean protein, substrate concentration 2%, heat treatment of enzyme no, reaction time 0 h): 52.2%
Decomposition efficiency: ratio of each glycoside/aglycon within its isoflavone family (Crude diglycosidase; concentrated soybean protein, substrate concentration 2%, heat treatment of enzyme no, reaction time 1 h): not detected
Decomposition efficiency: ratio of each glycoside/aglycon within its isoflavone family (Crude diglycosidase; concentrated soybean protein, substrate concentration 2%, heat treatment of enzyme no, reaction time 3 h): not detected
Decomposition efficiency: ratio of each glycoside/aglycon within its isoflavone family (Crude diglycosidase; concentrated soybean protein, substrate concentration 2%, heat treatment of enzyme no, reaction time 6 h): not detected
Decomposition efficiency: ratio of each glycoside/aglycon within its isoflavone family (Crude diglycosidase; concentrated soybean protein, substrate concentration 2%, heat treatment of enzyme yes, reaction time 6 h): 53.4%
Decomposition efficiency: ratio of each glycoside/aglycon within its isoflavone family (Crude diglycosidase; concentrated soybean protein, substrate concentration 5%, heat treatment of enzyme no, reaction time 0 h): 52.9%
Decomposition efficiency: ratio of each glycoside/aglycon within its isoflavone family (Crude diglycosidase; concentrated soybean protein, substrate concentration 5%, heat treatment of enzyme no, reaction time 1 h): not detected
Decomposition efficiency: ratio of each glycoside/aglycon within its isoflavone family (Crude diglycosidase; concentrated soybean protein, substrate concentration 5%, heat treatment of enzyme no, reaction time 3 h): not detected
Decomposition efficiency: ratio of each glycoside/aglycon within its isoflavone family (Crude diglycosidase; concentrated soybean protein, substrate concentration 5%, heat treatment of enzyme no, reaction time 6 h): not detected
Decomposition efficiency: ratio of each glycoside/aglycon within its isoflavone family (Crude diglycosidase; concentrated soybean protein, substrate concentration 5%, heat treatment of enzyme yes, reaction time 6 h): 54.0%
Decomposition efficiency: ratio of each glycoside/aglycon within its isoflavone family (Crude diglycosidase; concentrated soybean protein, substrate concentration 10%, heat treatment of enzyme no, reaction time 0 h): 52.9%
Decomposition efficiency: ratio of each glycoside/aglycon within its isoflavone family (Crude diglycosidase; concentrated soybean protein, substrate concentration 10%, heat treatment of enzyme no, reaction time 1 h): 1.6%
Decomposition efficiency: ratio of each glycoside/aglycon within its isoflavone family (Crude diglycosidase; concentrated soybean protein, substrate concentration 10%, heat treatment of enzyme no, reaction time 3 h): not detected
Decomposition efficiency: ratio of each glycoside/aglycon within its isoflavone family (Crude diglycosidase; concentrated soybean protein, substrate concentration 10%, heat treatment of enzyme no, reaction time 6 h): not detected
Decomposition efficiency: ratio of each glycoside/aglycon within its isoflavone family (Crude diglycosidase; concentrated soybean protein, substrate concentration 10%, heat treatment of enzyme yes, reaction time 6 h): 53.4%
Decomposition efficiency: ratio of each glycoside/aglycon within its isoflavone family (Crude diglycosidase; concentrated soybean protein, substrate concentration 20%, heat treatment of enzyme no, reaction time 0 h): 53.1%
Decomposition efficiency: ratio of each glycoside/aglycon within its isoflavone family (Crude diglycosidase; concentrated soybean protein, substrate concentration 20%, heat treatment of enzyme no, reaction time 1 h): 13.2%
Decomposition efficiency: ratio of each glycoside/aglycon within its isoflavone family (Crude diglycosidase; concentrated soybean protein, substrate concentration 20%, heat treatment of enzyme no, reaction time 3 h): not detected
Decomposition efficiency: ratio of each glycoside/aglycon within its isoflavone family (Crude diglycosidase; concentrated soybean protein, substrate concentration 20%, heat treatment of enzyme no, reaction time 6 h): not detected
Decomposition efficiency: ratio of each glycoside/aglycon within its isoflavone family (Crude diglycosidase; concentrated soybean protein, substrate concentration 20%, heat treatment of enzyme yes, reaction time 6 h): 52.8%
Decomposition efficiency: ratio of each glycoside/aglycon within its isoflavone family (Crude diglycosidase; concentrated soybean protein, substrate concentration 30%, heat treatment of enzyme no, reaction time 0 h): 57.5%
Decomposition efficiency: ratio of each glycoside/aglycon within its isoflavone family (Crude diglycosidase; concentrated soybean protein, substrate concentration 30%, heat treatment of enzyme no, reaction time 1 h): 2.0%
Decomposition efficiency: ratio of each glycoside/aglycon within its isoflavone family (Crude diglycosidase; concentrated soybean protein, substrate concentration 30%, heat treatment of enzyme no, reaction time 3 h): not detected
Decomposition efficiency: ratio of each glycoside/aglycon within its isoflavone family (Crude diglycosidase; concentrated soybean protein, substrate concentration 30%, heat treatment of enzyme no, reaction time 6 h): not detected
Decomposition efficiency: ratio of each glycoside/aglycon within its isoflavone family (Crude diglycosidase; concentrated soybean protein, substrate concentration 30%, heat treatment of enzyme yes, reaction time 6 h): 58.0%
Decomposition efficiency: ratio of each glycoside/aglycon within its isoflavone family (Crude diglycosidase; defatted soybean, substrate concentration 2%, heat treatment of enzyme no, reaction time 0 h): not detected
Decomposition efficiency: ratio of each glycoside/aglycon within its isoflavone family (Crude diglycosidase; defatted soybean, substrate concentration 2%, heat treatment of enzyme no, reaction time 1 h): not detected
Decomposition efficiency: ratio of each glycoside/aglycon within its isoflavone family (Crude diglycosidase; defatted soybean, substrate concentration 2%, heat treatment of enzyme no, reaction time 3 h): not detected
Decomposition efficiency: ratio of each glycoside/aglycon within its isoflavone family (Crude diglycosidase; defatted soybean, substrate concentration 2%, heat treatment of enzyme no, reaction time 6 h): not detected
Decomposition efficiency: ratio of each glycoside/aglycon within its isoflavone family (Crude diglycosidase; defatted soybean, substrate concentration 2%, heat treatment of enzyme yes, reaction time 6 h): not detected
Decomposition efficiency: ratio of each glycoside/aglycon within its isoflavone family (Crude diglycosidase; defatted soybean, substrate concentration 5%, heat treatment of enzyme no, reaction time 0 h): not detected
Decomposition efficiency: ratio of each glycoside/aglycon within its isoflavone family (Crude diglycosidase; defatted soybean, substrate concentration 5%, heat treatment of enzyme no, reaction time 1 h): not detected
Decomposition efficiency: ratio of each glycoside/aglycon within its isoflavone family (Crude diglycosidase; defatted soybean, substrate concentration 5%, heat treatment of enzyme no, reaction time 3 h): not detected
Decomposition efficiency: ratio of each glycoside/aglycon within its isoflavone family (Crude diglycosidase; defatted soybean, substrate concentration 5%, heat treatment of enzyme no, reaction time 6 h): not detected
Decomposition efficiency: ratio of each glycoside/aglycon within its isoflavone family (Crude diglycosidase; defatted soybean, substrate concentration 5%, heat treatment of enzyme yes, reaction time 6 h): not detected
Decomposition efficiency: ratio of each glycoside/aglycon within its isoflavone family (Crude diglycosidase; defatted soybean, substrate concentration 10%, heat treatment of enzyme no, reaction time 0 h): not detected
SMILES: COc1cc2c(=O)c(-c3ccc(O)cc3)coc2cc1O[C@@H]1O[C@H](CO)[C@@H](O)[C@H](O)[C@H]1O [glycitin]
